ChEMBL document CHEMBL4507276 (2021)

Assays:
[1] = molecular target: 5-hydroxytryptamine receptor 6 (Homo sapiens) (UniProt P50406); conditions: Compound concentration 10.0 uM
[2] = test system: T1, Receptor-type tyrosine-protein kinase FLT3 (Homo sapiens), P36888 [D835Y]; experiment: FLT3 D835Y Invitrogen selectivity data (BI); conditions: Compound concentration 3.0 uM
T1 sequence (whole entry): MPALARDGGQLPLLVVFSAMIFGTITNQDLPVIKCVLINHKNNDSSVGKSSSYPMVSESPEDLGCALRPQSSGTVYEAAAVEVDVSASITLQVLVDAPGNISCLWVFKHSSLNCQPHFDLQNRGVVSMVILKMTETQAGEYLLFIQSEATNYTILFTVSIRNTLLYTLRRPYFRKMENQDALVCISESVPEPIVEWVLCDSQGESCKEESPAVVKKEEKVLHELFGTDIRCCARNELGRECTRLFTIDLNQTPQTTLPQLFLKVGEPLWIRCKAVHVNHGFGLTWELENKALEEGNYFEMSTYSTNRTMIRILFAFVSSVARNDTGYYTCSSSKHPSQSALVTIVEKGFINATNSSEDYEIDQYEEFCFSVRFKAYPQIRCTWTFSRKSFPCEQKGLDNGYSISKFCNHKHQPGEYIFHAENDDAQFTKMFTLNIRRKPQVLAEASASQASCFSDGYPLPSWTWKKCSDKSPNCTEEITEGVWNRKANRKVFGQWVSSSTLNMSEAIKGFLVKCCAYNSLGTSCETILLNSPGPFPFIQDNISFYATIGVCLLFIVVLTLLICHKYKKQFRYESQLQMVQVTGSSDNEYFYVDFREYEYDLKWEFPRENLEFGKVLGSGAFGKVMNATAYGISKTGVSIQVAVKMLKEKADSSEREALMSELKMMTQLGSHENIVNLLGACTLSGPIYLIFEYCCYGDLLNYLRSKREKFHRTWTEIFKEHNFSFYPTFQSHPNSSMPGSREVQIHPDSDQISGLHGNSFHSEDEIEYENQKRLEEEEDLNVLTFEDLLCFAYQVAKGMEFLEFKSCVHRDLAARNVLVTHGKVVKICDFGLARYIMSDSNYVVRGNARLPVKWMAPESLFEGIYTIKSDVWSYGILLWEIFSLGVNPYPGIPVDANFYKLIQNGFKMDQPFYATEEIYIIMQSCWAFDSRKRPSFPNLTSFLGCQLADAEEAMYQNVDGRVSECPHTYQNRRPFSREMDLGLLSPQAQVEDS

[3] = molecular target: T2, Activin receptor type-1B (Homo sapiens) (UniProt P36896); experiment: ACVR1B Invitrogen selectivity data (BI); conditions: Compound concentration 3.0 uM
T2 sequence (whole entry): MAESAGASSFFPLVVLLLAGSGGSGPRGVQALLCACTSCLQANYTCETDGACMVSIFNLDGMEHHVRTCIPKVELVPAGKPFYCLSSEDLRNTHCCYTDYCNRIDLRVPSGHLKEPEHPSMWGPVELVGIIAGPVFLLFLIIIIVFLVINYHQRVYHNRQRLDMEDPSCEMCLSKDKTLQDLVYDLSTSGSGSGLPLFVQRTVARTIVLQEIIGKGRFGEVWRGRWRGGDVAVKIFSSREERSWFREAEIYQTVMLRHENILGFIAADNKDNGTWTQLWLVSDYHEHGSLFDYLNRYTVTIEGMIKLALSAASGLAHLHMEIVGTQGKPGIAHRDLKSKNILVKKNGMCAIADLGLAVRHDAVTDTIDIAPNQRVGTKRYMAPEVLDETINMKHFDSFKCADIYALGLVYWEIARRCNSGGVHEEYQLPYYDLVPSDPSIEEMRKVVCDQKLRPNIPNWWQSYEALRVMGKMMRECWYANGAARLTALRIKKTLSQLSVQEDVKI

[4] = molecular target: Histamine H3 receptor (Homo sapiens) (UniProt Q9Y5N1); experiment: H3/NAMEH_H Cerep selectivity data (BI); conditions: filed as antagonist, Compound concentration 20.0 uM
[5] = molecular target: Neuronal acetylcholine receptor; alpha4/beta2 (Homo sapiens) (UniProt P17787+P43681); experiment: N_NEURO_A4B2 Cerep selectivity data (BI); type: protein-complex assay; conditions: filed as agonist, Compound concentration 20.0 uM
[6] = molecular target: Platelet-activating factor receptor (Homo sapiens) (UniProt P25105); experiment: PAF Cerep selectivity data (BI); conditions: filed as agonist, Compound concentration 20.0 uM
[7] = molecular target: T3, Inhibitor of nuclear factor kappa-B kinase subunit alpha (Homo sapiens) (UniProt O15111); experiment: CHUK_IKKA Invitrogen selectivity data (BI); conditions: Compound concentration 3.0 uM
T3 sequence (whole entry): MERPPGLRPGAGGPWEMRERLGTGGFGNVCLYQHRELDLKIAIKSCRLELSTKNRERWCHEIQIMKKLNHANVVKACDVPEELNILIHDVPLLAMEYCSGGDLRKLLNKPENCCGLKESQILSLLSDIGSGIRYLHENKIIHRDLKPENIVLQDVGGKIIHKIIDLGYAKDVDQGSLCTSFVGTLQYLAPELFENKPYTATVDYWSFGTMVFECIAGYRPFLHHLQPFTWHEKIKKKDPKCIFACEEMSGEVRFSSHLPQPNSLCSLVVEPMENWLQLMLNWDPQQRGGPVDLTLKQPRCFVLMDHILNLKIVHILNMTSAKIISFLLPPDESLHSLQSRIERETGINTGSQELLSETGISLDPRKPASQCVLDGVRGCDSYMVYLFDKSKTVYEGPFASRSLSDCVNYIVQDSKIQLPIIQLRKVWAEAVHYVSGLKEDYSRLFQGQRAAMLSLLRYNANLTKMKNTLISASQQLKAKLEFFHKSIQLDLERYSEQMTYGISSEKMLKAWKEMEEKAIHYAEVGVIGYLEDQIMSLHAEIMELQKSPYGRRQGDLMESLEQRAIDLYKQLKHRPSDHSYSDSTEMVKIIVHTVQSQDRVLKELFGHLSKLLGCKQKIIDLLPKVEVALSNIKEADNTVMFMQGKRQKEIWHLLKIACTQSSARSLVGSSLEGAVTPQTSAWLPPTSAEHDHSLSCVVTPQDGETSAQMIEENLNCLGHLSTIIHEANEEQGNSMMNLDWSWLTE

Sequence of 5-hydroxytryptamine receptor 6 (Homo sapiens) (P50406 whole entry): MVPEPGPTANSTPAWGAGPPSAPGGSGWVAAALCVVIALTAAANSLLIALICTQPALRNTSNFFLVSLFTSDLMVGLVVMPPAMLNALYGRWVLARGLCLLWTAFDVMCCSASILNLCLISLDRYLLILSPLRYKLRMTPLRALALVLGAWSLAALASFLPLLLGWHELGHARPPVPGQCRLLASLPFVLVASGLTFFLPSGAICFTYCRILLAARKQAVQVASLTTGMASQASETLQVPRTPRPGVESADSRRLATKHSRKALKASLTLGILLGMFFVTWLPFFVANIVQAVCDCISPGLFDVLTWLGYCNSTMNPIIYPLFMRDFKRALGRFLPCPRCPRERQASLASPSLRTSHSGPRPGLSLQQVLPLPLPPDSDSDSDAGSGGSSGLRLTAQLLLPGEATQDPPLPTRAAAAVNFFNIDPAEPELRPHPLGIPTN
Sequence of Platelet-activating factor receptor (Homo sapiens) (P25105 whole entry): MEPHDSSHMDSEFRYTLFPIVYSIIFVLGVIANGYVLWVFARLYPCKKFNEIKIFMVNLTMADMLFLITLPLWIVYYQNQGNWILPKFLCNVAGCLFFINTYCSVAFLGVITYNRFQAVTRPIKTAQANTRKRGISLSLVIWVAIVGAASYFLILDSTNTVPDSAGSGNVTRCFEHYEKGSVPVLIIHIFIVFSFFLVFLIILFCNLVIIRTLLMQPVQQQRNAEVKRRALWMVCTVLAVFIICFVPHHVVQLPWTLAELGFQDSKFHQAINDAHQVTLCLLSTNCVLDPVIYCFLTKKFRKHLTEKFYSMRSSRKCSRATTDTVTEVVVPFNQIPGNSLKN
Sequence of Histamine H3 receptor (Homo sapiens) (Q9Y5N1 whole entry): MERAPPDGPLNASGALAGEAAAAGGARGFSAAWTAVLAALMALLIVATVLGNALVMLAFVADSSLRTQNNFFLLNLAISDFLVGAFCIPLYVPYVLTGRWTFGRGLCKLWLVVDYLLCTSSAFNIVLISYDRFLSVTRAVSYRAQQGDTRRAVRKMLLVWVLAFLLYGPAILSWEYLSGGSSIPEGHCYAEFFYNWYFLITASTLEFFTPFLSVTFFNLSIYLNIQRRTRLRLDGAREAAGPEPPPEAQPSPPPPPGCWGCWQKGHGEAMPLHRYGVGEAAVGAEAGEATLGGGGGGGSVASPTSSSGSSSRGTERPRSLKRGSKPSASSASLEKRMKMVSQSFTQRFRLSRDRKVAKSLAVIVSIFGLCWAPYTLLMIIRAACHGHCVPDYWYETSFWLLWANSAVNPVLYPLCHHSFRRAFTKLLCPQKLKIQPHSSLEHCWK

CN(C)C(=O)Cn1cc(-c2nc(C3(c4ccc(-c5cnc(N)nc5)cc4)CC3)no2)cn1 [BI 0153]
inactive: inhibition [1] -7.48%

CN(C)C(=O)Cn1cc(-c2nc([C@@](C)(c3ccc(-c4cnc(N)nc4)cc3)C3CC3)no2)cn1 [BI 665915]
inactive: residual activity [2] 79% | residual activity [3] 104% | residual activity [4] 108% | residual activity [5] 113% | residual activity [6] 65% | residual activity [7] 99.5%
